# Measured values reported in patent US10842151B2, “Small molecule compound for enhancing plant stress resistance” (SHANGHAI INSTITUTES FOR BIOLOGICAL SCIENCES, CHINESE …, priority 2015, dated 2020).
# Columns and labels:
# Kyoho grapes = experiment: Grape coloring experiment (anthocyanin content); format: in vivo; settings: aqueous suspension; vs fresh water control
# Description: The grapes used in the experiment were commercially available variety of Kyoho. According to weather conditions, during the color conversion period of grapes, the fruit ears with the same size and consistent growth were selected and soaked with a water suspension preparation containing 2000 mg/L, 1000 mg/L, 500 mg/L and 100 mg/L of 6% AMX compound 1127 for 10 seconds. Soaking in water was regarded as a control. Each experiment was repeated 10 times, each ear was regarded as a duplicate. Samples were collected after harvesting. Samples were collected from the upper, middle and lower parts of each ear in two directions, i.e., glossy and backlit, with 6 grains collected per ear. The samples were preserved in the laboratory at −20° C. for use.
# 30 pieces of pericarp were evenly taken from up and low portion around the equator of grape fruit by using a hole puncher with a diameter of 10 mm. After they were mixed well and weighed, the anthocyanin in the pericarp was determined. […] The content of anthocyanins (calculated as cornflower-3-glucoside equivalent) was determined by pH differential method and each treatment was repeated three times. Content of anthocyanins (mg/g) X=ΔA×F×M/ε×m, wherein ΔA was absorbance; F was fold of dilution; M is the relative molecular mass 449.2 of cyanidin-3-glucoside, ε is a molar extinction coefficient 26,900 for cyanidin-3-glucoside; m is sample mass.
# PYR1 + HAB1 = target: T1, PYR1 + HAB1 (Arabidopsis thaliana, UniProt O49686); experiment: AlphaScreen experiment, PYR1 + HAB1; format: binding; settings: column 2; number in brackets; read-out: Half maximum effect concentration EC50 (PYR1 + HAB1)
# T1 sequence (O49686 1-191): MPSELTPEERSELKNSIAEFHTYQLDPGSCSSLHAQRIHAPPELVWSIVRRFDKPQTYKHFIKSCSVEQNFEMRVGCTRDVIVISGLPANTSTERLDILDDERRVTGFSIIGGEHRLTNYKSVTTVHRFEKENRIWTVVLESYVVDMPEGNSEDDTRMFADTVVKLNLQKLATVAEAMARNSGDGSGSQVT
# T1 sequence (Q9CAJ0 172-511 partner): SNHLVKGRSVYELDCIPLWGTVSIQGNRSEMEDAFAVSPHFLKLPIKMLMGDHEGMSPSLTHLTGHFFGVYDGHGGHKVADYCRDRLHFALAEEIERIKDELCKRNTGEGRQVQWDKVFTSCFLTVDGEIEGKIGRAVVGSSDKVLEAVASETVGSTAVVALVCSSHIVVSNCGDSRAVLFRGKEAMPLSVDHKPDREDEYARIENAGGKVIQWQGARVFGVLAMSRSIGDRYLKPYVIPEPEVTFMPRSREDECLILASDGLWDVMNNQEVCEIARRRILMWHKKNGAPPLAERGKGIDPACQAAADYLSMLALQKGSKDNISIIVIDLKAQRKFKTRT
# Description: (§1) After incubating for 1.5 hours at room temperature in the dark, it was placed into an Envision Plate Reader (available from Perkin Elmer) under the programmed AlphaScreen procedure for readings.
# [1] = tested on: Arabidopsis Col-0 ecotype; experiment: Soil drought experiment, Arabidopsis; format: in vivo, Arabidopsis thaliana
# Description: Seeds of Arabidopsis Col-0 ecotype were sterilized with NaClO and then sown on ½ MS solid medium at 4° C. for 3 days of vernalization. After 6 days of growing, the well-grown seedlings having uniform size were selected and transferred into 8×7×6 cm^3 pots. Each pot was filled with the same weight of soil and the same number of plants (six plants) was planted to reduce experimental error. All the pots were subjected to a short-day culture at 22° C. After two weeks, watering was stopped for drought treatment. […] The position of the flowerpot was changed every day during the process of drought to reduce the error caused by environmental factors. During the whole drought period, the solution was sprayed twice in total and photos were recorded regularly. The watering was resumed in about three weeks.
# [2] = tested on: soybean GmPYL3 and GmPYL6 + Arabidopsis AtHAB1; experiment: AlphaScreen experiment with soybean GmPYL receptors; format: binding; settings: FIG. 9
# Description: as §1
# PYL7 + HAB1 = target: T2, PYL7 + HAB1 (Arabidopsis thaliana, UniProt Q1ECF1); experiment: AlphaScreen experiment, PYL7 + HAB1; format: binding; settings: number in brackets; read-out: Half maximum effect concentration EC50 (PYL7 + HAB1)
# T2 construct: made in house; host or cells: E. coli BL21 (DE3)
# T2 sequence (Q1ECF1 1-211): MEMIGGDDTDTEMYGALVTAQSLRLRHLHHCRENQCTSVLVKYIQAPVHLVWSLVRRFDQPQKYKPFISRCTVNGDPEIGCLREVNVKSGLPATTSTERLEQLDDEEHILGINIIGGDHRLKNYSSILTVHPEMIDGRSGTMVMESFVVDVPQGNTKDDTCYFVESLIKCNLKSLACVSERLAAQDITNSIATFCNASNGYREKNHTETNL
# T2 sequence (Q9CAJ0 172-511 partner limits assumed): T1 sequence (Q9CAJ0 172-511 partner)
# Description: as §1
# [3] = Maximum tolerated dose, single oral gavage; format: in vivo; settings: both sexes, rat, in vivo, 5000 mg/kg, SD rats
# Description: (§2) The test substance used in the experiment was AMX compound 1127.
# (§3) In the maximum tolerated dose of tested substance in single oral gavage experiment in SD rat, 8 SD rats were randomly divided into two groups, with […]. After a single oral gavage administration, rats were observed continuously for 14 days and dissected on the 15th day. The following indicators were evaluated: clinical observation, body weight and pathology examination (macroscopic morphology).
# SD rat = experiment: Maximum tolerated dose, single oral gavage; format: in vivo; settings: 5000 mg/kg, male and female rats
# Description: as §2, §3
# [4] = tested on: pyr1;pyl1;pyl4 triple mutant seeds; experiment: Seed germination, PYR/PYL triple mutant; format: in vivo, Arabidopsis thaliana; settings: 1 μM; six days after seeding
# From the text: Two lines of plant were sown simultaneously on a single medium of 6 cm diameter, with 15 seeds sown for each line and 4 replicates for each compound. […]
# [5] = tested on: Yunnan Lily variety Siberia; experiment: Flower preservative experiment; format: in vivo; settings: aqueous suspension 10 ppm (22.5 μM); after 20 days
# Description: The commercially available Yunnan Lily varieties “Siberia” biennial buds were used for test, wherein each branch had 5 buds and 10 leaves, and there was 1 branch per bottle. The branch having buds was inserted into a water suspension preparation containing 10 ppm (22.5 μM) of AMX compound 1127 or into tap water. The flower status was recorded before and after 20 days of treatment.
smiles,measurement,setting,value
CCCN1C(=O)CCc2cc(NS(=O)(=O)Cc3c(F)c(F)c(C)c(F)c3F)ccc21 [Compound 1127],content of anthocyanin in grapes peel,Kyoho grapes,significantly higher than that in the fresh water control group
same,EC50,PYR1 + HAB1,15 nM
same,plant survival,"[1]; 5 μM sprayed, 18 days after drought",still survived
same,plant growth,"[1]; 5 μM sprayed, after 20 days of drought",still maintained good growth
same,drought resistance compared with compound with fewer halogen atoms (0604c),"[1]; same concentration, after 2 weeks of drought, FIG. 8c",stronger drought resistance
same,affinities for soybean GmPYL proteins compared with ABA,[2],significantly higher affinities
same,EC50,PYL7 + HAB1,10 nM
same,MTD at 14 days,[3],> 5000 mg/kg
same,"clinical observation, body weight and macroscopic morphological observation of tissues/organs",SD rat,no drug-related changes were observed
same,germination of pyr1;pyl1;pyl4 triple mutant seeds,[4],could not inhibit germination of PYR/PYL triple mutant pyr1;pyl1;pyl4 seeds
same,flowers remained normal,[5],60%
same,leaf withering,[5],no leave withered
same,leaves remained green,[5],70%
